Reference: US11207308B2, “Pharmaceutical compositions for combination therapy” (PRILENIA NEUROTHERAPEUTICS LTD., priority 2012, dated 2021)
“Also recorded” adds a separate entry of the source.

What was measured:
Assay type in all cases: in vivo, rat
Male Sprague-Dawley rats = assay: Spontaneous locomotor activity, dose-response in drug-naive rats
Method: (§1) Rats weighed 160-180 g at the time of arrival.
(§2) The treatment groups consisted of Vehicle (saline; NaCl 0.9% v/w) and ACR16 tested at three doses (11; 33 and 100 μmol/kg).
(§3) KR104: Animals were allocated into five different treatment groups, n=4.
(§4) All compounds were injected s.c. four minutes before start of locomotor activity recording at a volume of 5 ml/kg.
During measurements of behavioural activity, a rat is put in a transparent acrylic cage with matted black floor (W×L×H, 41×41×30 cm) which in turn is placed in the activity monitor. […] Two rows are placed along the front and the side of the floor of the cage, at a 90 degree angle, and the third row is placed 10 cm above the floor to measure vertical activity. Photobeam sensors are spaced 2.5 cm apart.

striatal DOPAC = assay: Striatal DOPAC tissue level (HPLC/EC), dose-response in naive rats; details: mean ± SEM, percentage of vehicle control group mean
Method: as §1, §2, §3, §4
(§5) A digital sonifier (Branson Digital Sonifier 250-D) was used to homogenise tissue from the striatum and limbic region. […] All samples were centrifuged at 10.000 rpm for 10 minutes at +4° C. Cortex tissue was filtered in Munktell filter paper 5.5 cm quality 1 F. Tissue eluates were analysed with respect to tissue concentrations (ng/g tissue) of the monoamine transmitter substances (Norepinephrine (NA), dopamine (DA), 5-hydroxytryptamine (5-HT)) as well as their amine metabolites (normetanephrine (NM), 3-methoxytyramine (3-MT)) and acid metabolites ([…] (DOPAC), 5-hydrocyindoleacetic acid (5-HTAA), homovanillic acid (HVA)) by HPLC separations and electrochemical detection (HPLC/EC). Stock standards (DA, NA, 5-HT, 3-MT, DOPAC, HVA, HIAA, 500 μg/ml) and internal standard (AMDA 500 μg/ml) are prepared once every three months. 5-HT and 5HIAA are dissolved in milliQ water. DA, NA, DOPAC, NM, 3-MT and HVA are dissolved in 0.01 M HCl. 5-HT, 5-HIAA, NM and HVA are kept in fridge; DA, DOPAC, NA and 3-MT are kept in freezer.
(§6) Detection potentials relative to Ag/AgCl reference are 0.45 and 0.60V. […] Detection potentials relative to Ag/AgCl reference are 0.45 and 0.65V.

striatal dopamine = assay: Striatal dopamine (DA) tissue level (HPLC/EC), dose-response in naive rats; details: for DA striatum, dose-response in naive rats: mean ± SEM, percentage of vehicle control group mean
Method: as §1, §2, §3, §4, §5, §6

Arc mRNA = assay: Arc gene expression (Arc mRNA, real-time PCR) in striatum and frontal cortex, dose-response studies
Method: as §1, §4
Reference genes are HPRT and cyclophilin.
Correct PCR products are confirmed by agarose gel electroforesis (2%) PCR products are purified with PCR purification kit from Qiagen (Valencia, Calif., USA). All genes are sequenced at MWG, Germany.
For the data shown in FIG. 6, the reverse transcription and PCR were performed as follows:
Reversed transcription is performed by using a ThermoScript kit (Invitrogen).
cDNA of Arc and two reference genes, hypoxanthine-guanine phosphoribosyltransferase (HPRT) and cyclophilin A, was amplified by real-time PCR in either a triplex reaction (Tetrabenazine studies) or three singleplex reactions (studies with Pridopidine and haloperidol).

[1] = 0.64 mg/kg s.c., vs vehicle control

COc1cc2c(cc1OC)C1CC(=O)C(CC(C)C)CN1CC2 (stereo not drawn) [Tetrabenazine, (SS,RR)-3-Isobutyl-9,10-dimethoxy-1,3,4,6,7,11b-hexahydro-pyrido[2,1-a]isoquinolin-2-one]
Locomotor activity, Tetrabenazine control group vs. vehicle treated controls (in words) (Male Sprague-Dawley rats; 0.64 mg/kg s.c., full hour (P<0.001), 0-15 min and 15-60 min (P<0.01), interaction experiment with Pridopidine): significant decrease
Spontaneous locomotor activity, % of the vehicle control group mean (Male Sprague-Dawley rats; 1.1 mg/kg s.c., full hour of recording): 40%
Spontaneous locomotor activity, period 15-60 minutes post dosing (in words) (Male Sprague-Dawley rats; 15-60 minutes post dosing, vs vehicle control): significant effects (P<0.05) were observed at 0.64 and 1.1 mg/kg
Effect on spontaneous locomotor activity (in words) (Male Sprague-Dawley rats; all doses tested, s.c., 60 min recording): dose dependently inhibited spontaneous locomotor activity
Spontaneous locomotor activity, initial 15 min (in words) (Male Sprague-Dawley rats; initial 15 min of recording, vs vehicle control): significant reductions (P<0.05) were seen both for the 1.1 and 0.37 mg/kg
DOPAC striatum, dose-response in naive rats (striatal DOPAC; 0.37 mg/kg s.c.): 144 ± 8 %
DOPAC striatum, dose-response in naive rats (striatal DOPAC; 0.64 mg/kg s.c.): 208 ± 14 %
DOPAC striatum, dose-response in naive rats (striatal DOPAC; 1.1 mg/kg s.c.): 263 ± 19 %
DA striatum, dose-response in naive rats (striatal dopamine; 0.37 mg/kg s.c.): 48 ± 2 %
DA striatum, dose-response in naive rats (striatal dopamine; 0.64 mg/kg s.c.): 33 ± 3 %
Striatal dopamine, % of vehicle control group mean (striatal dopamine; 0.64 mg/kg, the dose used in the interaction experiments, throughout the studies performed): approximately 50%
DA striatum, dose-response in naive rats (striatal dopamine; 1.1 mg/kg s.c.): 20 ± 2 %
Arc mRNA in the frontal cortex, % of control group mean (Arc mRNA; 0.64 mg/kg s.c., trend, p=0.14): 83%
Frontal cortex Arc mRNA, Tetrabenazine alone in the interaction experiments (in words) (Arc mRNA; [1]): significant decrease; also recorded: tended to decrease
Striatal Arc mRNA, Tetrabenazine alone in the interaction experiments (in words) (Arc mRNA; [1]): no significant effect
Arc mRNA in the frontal cortex, % of the vehicle control group mean (Arc mRNA; 1.1 mg/kg s.c.): 66%
Arc mRNA in the striatum, % of the vehicle control group mean (Arc mRNA; 1.1 mg/kg s.c.): 147%
